US20210009551A1, “COMPOUNDS AND METHODS FOR TREATING FIBROSIS OR CANCER” (THE REGENTS OF THE UNIVERSITY OF CALIFORNIA, priority 2016, published 2021)

Columns and labels:
[1] = tested on: urinary DPD/PYD after bleomycin; assay: Urinary PYD/DPD measurements; type: in vivo, mice; conditions: 100 mg/kg from day 10
Description: Urinary PYD/DPD measurements. Pooled urine from each of 3-5 mice for each time point after bleomycin in a cohort of mice treated with vehicle or corilagin (100 mg/kg) beginning on day 10 post bleomycin were collected. Urine specimens were also collected from two cohorts of IPF patients and controls at two sites: All consenting patients with physician-established diagnosis of IPF followed in the respective ILD programs were included in sample collection. PYD/DPD levels from all the samples were measured using MicroVue EIA Assay Kit (Quidel Corp., San Diego, Calif.) along with PYD/DPD standards and the results were normalized relative to urinary creatinine. The statistical significance was analyzed using Mann-Whitney U-Test.

[2] = molecular target: T1, human LOXL2 (Homo sapiens, UniProt Q9Y4K0); assay: Collagen crosslinking induced by recombinant LOXL2 in lung fibroblasts (Sircol assay); type: cell-based; conditions: primary human lung fibroblasts, 7 days
T1 sequence (Q9Y4K0 26-774): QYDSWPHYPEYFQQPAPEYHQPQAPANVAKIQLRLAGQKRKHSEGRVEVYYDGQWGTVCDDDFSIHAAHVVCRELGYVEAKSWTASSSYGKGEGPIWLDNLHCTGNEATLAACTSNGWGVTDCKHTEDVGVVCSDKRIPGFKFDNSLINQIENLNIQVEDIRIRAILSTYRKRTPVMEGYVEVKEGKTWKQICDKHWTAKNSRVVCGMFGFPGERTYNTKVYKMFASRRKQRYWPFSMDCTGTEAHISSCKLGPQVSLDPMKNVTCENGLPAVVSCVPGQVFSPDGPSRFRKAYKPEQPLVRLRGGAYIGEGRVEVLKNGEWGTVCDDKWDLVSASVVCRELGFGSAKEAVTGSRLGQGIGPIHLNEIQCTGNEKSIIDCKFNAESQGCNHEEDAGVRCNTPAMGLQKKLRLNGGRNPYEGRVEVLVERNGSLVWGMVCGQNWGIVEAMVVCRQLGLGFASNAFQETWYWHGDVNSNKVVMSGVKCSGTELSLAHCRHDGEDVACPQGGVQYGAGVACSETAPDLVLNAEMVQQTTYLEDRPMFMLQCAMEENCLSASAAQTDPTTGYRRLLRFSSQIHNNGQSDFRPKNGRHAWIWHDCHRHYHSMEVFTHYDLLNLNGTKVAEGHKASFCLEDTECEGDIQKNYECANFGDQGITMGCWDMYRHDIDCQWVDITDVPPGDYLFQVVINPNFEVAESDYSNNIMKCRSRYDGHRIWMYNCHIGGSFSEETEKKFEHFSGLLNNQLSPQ
Description: Preparation of insoluble cross-linked collagen. Fibroblasts were cultured on 10 cm dish until confluent. The medium was then changed to Dulbecco's modified Eagle's medium (DMEM) containing 5% FBS, 100 μM L-ascorbic acid with 500 kDa Dextran Sulfate at 100 μg/ml, and 50 ng/ml recombinant human LOXL2 (rhLOXL2) for 7 days^21,22. The cell layer was extracted with 0.5 M acetic acid and 0.1 mg/ml pepsin overnight at 4° C. The leftover insoluble fraction was further extracted and the insoluble cross-linked collagen measured using Sircol Insoluble Collagen Assay kit according to manufacture's instruction.

[3] = molecular target: T1, human LOXL2; assay: LOX activity assay (H2O2 release, fluorimetric); type: biochemical; conditions: 1 h incubation, read-out: IC50 of LOXL2 enzymatic activity toward a model substrate
Description: LOX activity assay LOX activity of recombinant human LOXL2 or conditioned medium collected from cells expressing LOXL2 was measured using a Fluorimetric Lysyl Oxidase Activity Assay Kit (Abeam, Cambridge, Mass.) following a protocol provided by the manufacturer. Briefly, 50 μl of sample was mixed with an equal volume of assay reaction mixture containing LOX substrate, horseradish peroxidase (HRP) and HRP substrate in the presence and absence of testing inhibitors and D-penicillamine (DPA), a LOX inhibitor. The mixture was incubated for 30 min at 37° C. in darkness. The fluorescence increase was then measured with a fluorescence plate reader (BMG Lab Tech FLUOstar) at Ex/Em=540/590 nm. Sample buffer or medium alone without LOXL2 was used for determination of the background fluorescence.

[4] = tested on: TGFβ1 signaling (p-smad3, snail 1); assay: TGFβ1 signaling in NMuMG cells expressing wild-type or mutant LOXL2; type: cell-based; conditions: 1 μM
Description: (§1) Immunoblot. Pulverized tissue and cells were lysed in RIP A buffer (150 mM NaCl, 50 mM Tris, pH 8.0, 1% Triton X-100, 0.5% sodium deoxycholate, 0.1% SDS, supplemented with protease and phosphatase inhibitors) and analyzed by immunoblotting. Densitometry was quantified using NIH Imaged software.
Site-directed mutagenesis of LOXL2. Site-directed mutagenesis was performed to generate K614N, K731R, and K759R point mutations using Phusion Site-Directed Mutagenesis Kit (Thermo Scientific, Waltham, Mass.) according to manufacturer's instructions. A pcDNA3-hLOXL2-flag plasmid containing the cDNA fragment of wild-type human LOXL2 fused with a flag tag at the C-terminus, was used as the template DNA^18. Mutations were confirmed by DNA sequencing. The primers and their complementary strands used are: K614N forward 5′-[…]-3′ (SEQ ID NO:2), K614N reverse 5′-[…]-3′(SEQ ID NO:3); K731R forward 5′-[…]-3′(SEQ ID NO:4), K731R reverse 5′-[…]-3′(SEQ ID NO:5); K759R forward 5′-[…]-3′(SEQ ID NO:6), and K759R reverse 5′-[…]-3′(SEQ ID NO:7).

[5] = tested on: TGFβ1 signaling (p-smad3) in A549 cells; assay: TGFβ1-induced p-smad generation in cells (immunoblot); type: cell-based; conditions: 1 μM
Description: as §1

- IC50 [2]: 10 nM
- IC50 [3]: 50 nM
Structure (SMILES): O=C(O[C@@H]1O[C@@H]2COC(=O)c3cc(O)c(O)c(O)c3-c3c(cc(O)c(O)c3O)C(=O)O[C@H]([C@H]1O)[C@@H]2O)c1cc(O)c(O)c(O)c1 [corilagin, Corilagin]
- increase of urinary DPD/PYD levels days 10-21 post bleomycin [1]: suppressed
- inhibition of TGFβ1 signaling in cells expressing K731R LOXL2 [4]: completely resistant
- TGFβ1-induced p-smads after longer pre-incubation ([5]; pre-incubation 3 h or 6 h): completely suppressed
- effects on p-smad3 generation after knockdown of LOXL2 ([5]; A549 cells and primary lung fibroblasts, 6 h): completely blocked
